Key:
SK-MEL-5 [1] = tested on: SK-MEL-5; parameters: method as in https://dtp.cancer.gov/dtpstandard/dwindex/index.jsp; conditions: ref https://dtp.cancer.gov/dtpstandard/dwindex/index.jsp; cited from earlier work
HL-60(TB) [2] = tested on: HL-60(TB); parameters: method as in https://dtp.cancer.gov/dtpstandard/dwindex/index.jsp; conditions: ref https://dtp.cancer.gov/dtpstandard/dwindex/index.jsp; cited from earlier work
RPMI-8226 = tested on: RPMI-8226; parameters: method as in https://dtp.cancer.gov/dtpstandard/dwindex/index.jsp; conditions: PRMI-8226; ref https://dtp.cancer.gov/dtpstandard/dwindex/index.jsp; cited from earlier work
SF-295 = assay: NCI anticancer screening (SRB), CNS Cancer subpanel; format: cell-based, human; conditions: 10.0 µM in one dose
K-562 = assay: NCI anticancer screening (SRB), Leukemia subpanel; format: cell-based, human; conditions: 10.0 µM in one dose
U251 = assay: NCI anticancer screening (SRB), CNS Cancer subpanel; format: cell-based, human; conditions: 10.0 µM in one dose
HL-60(TB) [3] = assay: NCI anticancer screening (SRB), Leukemia subpanel; format: cell-based, human; conditions: 10.0 µM in one dose
SF-268 = assay: NCI anticancer screening (SRB), CNS Cancer subpanel; format: cell-based, human; conditions: 10.0 µM in one dose
SF-539 = assay: as above; format: cell-based, human; conditions: 10.0 µM in one dose
NCI-H226 = assay: NCI anticancer screening (SRB), Non-Small Cell Lung Cancer subpanel; format: cell-based, human; conditions: 10.0 µM in one dose
MDA-MB-468 = assay: NCI anticancer screening (SRB), Breast Cancer subpanel; format: cell-based, human; conditions: 10.0 µM in one dose
HS 578T = assay: as above; format: cell-based, human; conditions: 10.0 µM in one dose
HOP-92 = assay: NCI anticancer screening (SRB), Non-Small Cell Lung Cancer subpanel; format: cell-based, human; conditions: 10.0 µM in one dose
KM12 = assay: NCI anticancer screening (SRB), Colon Cancer subpanel; format: cell-based, human; conditions: 10.0 µM in one dose
HCT-116 = assay: as above; format: cell-based, human; conditions: 10.0 µM in one dose
ACHN = assay: NCI anticancer screening (SRB), Renal Cancer subpanel; format: cell-based, human; conditions: 10.0 µM in one dose
A498 = assay: as above; format: cell-based, human; conditions: 10.0 µM in one dose
A549/ATCC = assay: NCI anticancer screening (SRB), Non-Small Cell Lung Cancer subpanel; format: cell-based, human; conditions: 10.0 µM in one dose
CCRF-CEM = assay: NCI anticancer screening (SRB), Leukemia subpanel; format: cell-based, human; conditions: 10.0 µM in one dose
T-47D = assay: NCI anticancer screening (SRB), Breast Cancer subpanel; format: cell-based, human; conditions: 10.0 µM in one dose
HCC-2998 = assay: NCI anticancer screening (SRB), Colon Cancer subpanel; format: cell-based, human; conditions: 10.0 µM in one dose
SK-MEL-5 [4] = assay: NCI anticancer screening (SRB), Melanoma subpanel; format: cell-based, human; conditions: 10.0 µM in one dose
MOLT-4 = assay: NCI anticancer screening (SRB), Leukemia subpanel; format: cell-based, human; conditions: 10.0 µM in one dose
OVCAR-4 = assay: NCI anticancer screening (SRB), Ovarian Cancer subpanel; format: cell-based, human; conditions: 10.0 µM in one dose
SR = assay: NCI anticancer screening (SRB), Leukemia subpanel; format: cell-based, human; conditions: 10.0 µM in one dose
786-0 = assay: NCI anticancer screening (SRB), Renal Cancer subpanel; format: cell-based, human; conditions: 10.0 µM in one dose
HCT-15 = assay: NCI anticancer screening (SRB), Colon Cancer subpanel; format: cell-based, human; conditions: 10.0 µM in one dose
MDA-MB-435 = assay: NCI anticancer screening (SRB), Melanoma subpanel; format: cell-based, human; conditions: 10.0 µM in one dose
OVCAR-5 = assay: NCI anticancer screening (SRB), Ovarian Cancer subpanel; format: cell-based, human; conditions: 10.0 µM in one dose
Bax = assay: Apoptotic markers assay, Bax expression in MCF-7 cells; format: cell-based, human; conditions: MCF-7 cells treated at IC50 concentrations; vs untreated control = 1
Procedure: (§1) We measured the apoptosis promoter Bax levels, the apoptosis inhibitor Bcl−2, and the apoptosis coordination enzymes caspase-8 and caspase-9 [32].
(§2) The apoptotic marker method was carried out using the reported procedure using MCF-7, the cancer cell line (Supplementary Materials). […]
(cells are Plated […]
in a density of 1.2-1.8 X 10,000 cells/well in a volume of 100 µL complete growth medium + 100 µL of the tested compound per well in a 96-well plate for 24/48 h before the enzyme assay).
8. Evaluation of Bax and Bcl-2 expressions m RNA isolation was carried out using an RNeasy extraction kit, up to 1 X 107 cells. They were disrupted in Buffer RLT and homogenized. Ethanol was added to the lysate to promote the selective binding of RNA to the RNeasy membrane. Then, the sample was applied to the RNeasy […]
Mini spin column. Total RNA bound to the membrane. High-quality RNA was eluted using […]
(1 picture or pasted object on this page, not shown here)

MALME-3M = assay: NCI anticancer screening (SRB), Melanoma subpanel; format: cell-based, human; conditions: 10.0 µM in one dose
SK-MEL-2 = assay: NCI anticancer screening (SRB), Melanoma subpanel; format: cell-based, human; conditions: 10.0 µM in one dose
NCI-H460 = assay: NCI anticancer screening (SRB), Non-Small Cell Lung Cancer subpanel; format: cell-based, human; conditions: 10.0 µM in one dose
caspase-8 = assay: Apoptotic markers assay, caspase-8 level in MCF-7 cells; format: cell-based, human; conditions: MCF-7 cells treated at IC50 concentrations; vs untreated control = 1
Procedure: as §1, §2
7. Caspase-8 and 9 activation assay
A breast carcinoma (MCF-7) cell line was obtained from ATCC. […]
allowed cells to grow at 37 °C, stimulated with the compounds to be tested for caspase-8 or caspase-9 and lysed with Cell Extraction Buffer. Standard Diluent Buffer was used to dilute the lysate over the range of the assay and measure human active caspase-8 or caspase-9 content. (cells are Plated in a density of 1.2-1.8 X 10,000 cells/well in a volume of 100 µL complete growth medium + 100 µL of the tested compound per well in a 96-well plate for 24/48 h before the enzyme assay).
8. Evaluation of Bax and Bcl-2 expressions m RNA isolation was carried out using an RNeasy extraction kit, up to 1 X 107 cells. They were disrupted in Buffer RLT and homogenized. Ethanol was added to the lysate to promote the selective binding of RNA to the RNeasy membrane. Then, the sample was applied to the RNeasy

Cc1ccc(-c2cc(C(F)(F)F)nn2-c2ccc(S(N)(=O)=O)cc2)cc1 [Celecoxib, celecoxib]
GI50 (SK-MEL-5 [1]): 15.8 µM | GI50 (HL-60(TB) [2]): 15.8 µM | GI50 (RPMI-8226): 3.98 µM

CS(=O)(=O)Nc1ccc(C(=O)NN=Cc2ccccc2O)cc1 [Compound 7]
GI% (SF-295): 35% | GI% (K-562): 26% | GI% (U251): 56% | GI% (HL-60(TB) [3]): 22% | GI% (SF-268): 48% | GI% (SF-539): 40% | GI% (NCI-H226): 25% | GI% (MDA-MB-468): 24% | GI% (HS 578T): 11% | GI% (HOP-92): 44% | GI% (KM12): 35% | GI% (HCT-116): 59% | GI% (ACHN): 46% | GI% (A498): 16% | GI% (A549/ATCC): 11% | GI% (CCRF-CEM): 63% | GI% (T-47D): 18% | GI% (HCC-2998): 41% | GI% (SK-MEL-5 [4]): 33% | GI% (MOLT-4): 50% | GI% (OVCAR-4): 53% | GI% (SR): 67% | GI% (786-0): 25% | GI% (HCT-15): 67% | GI% (MDA-MB-435): 24% | GI% (OVCAR-5): 23% | Bax, Gene Expression (Fold Change) (Bax): 5.02 fold change | GI% (MALME-3M): 24% | GI% (SK-MEL-2): 22% | GI% (NCI-H460): 21% | Casp8, Gene Expression (Fold Change) (caspase-8): 5.171 fold change

— PMC11728000, “Antitumor Activity and Multi-Target Mechanism of Phenolic Schiff Bases Bearing Methanesulfonamide Fragments: Cell Cycle Analysis and a Molecular Modeling Study” (International Journal of Molecular Sciences, 2024)
